Source: patent publication US5753617A, “Peptide inhibitors of cellular adhesion” (Centocor, Inc., priority 1995, dated 1998)
Read-outs that look alike come from different tables or passages of the source. Where a SMILES comes first, the peptide text is derived from it. Bridges are numbered along the chain shown (N, C = ends). [ ]: non-standard residue; d: D form. Ava = NCCCCC(=O)O

Experiments:
[1] = disulfide bond, water
P-selectin = target: T1, P-selectin (Homo sapiens, UniProt P16109); assay: Inhibition of human neutrophil adhesion to purified P-selectin immobilized on plastic wells; assay type: cell-based; settings: inhibiting the binding of human neutrophils to P-selectin
T1 construct: P-selectin is isolated from human platelet lysates; from tissue; host or cells: human platelets (outdated platelet packs from a blood bank)
T1 sequence (P16109 42-830): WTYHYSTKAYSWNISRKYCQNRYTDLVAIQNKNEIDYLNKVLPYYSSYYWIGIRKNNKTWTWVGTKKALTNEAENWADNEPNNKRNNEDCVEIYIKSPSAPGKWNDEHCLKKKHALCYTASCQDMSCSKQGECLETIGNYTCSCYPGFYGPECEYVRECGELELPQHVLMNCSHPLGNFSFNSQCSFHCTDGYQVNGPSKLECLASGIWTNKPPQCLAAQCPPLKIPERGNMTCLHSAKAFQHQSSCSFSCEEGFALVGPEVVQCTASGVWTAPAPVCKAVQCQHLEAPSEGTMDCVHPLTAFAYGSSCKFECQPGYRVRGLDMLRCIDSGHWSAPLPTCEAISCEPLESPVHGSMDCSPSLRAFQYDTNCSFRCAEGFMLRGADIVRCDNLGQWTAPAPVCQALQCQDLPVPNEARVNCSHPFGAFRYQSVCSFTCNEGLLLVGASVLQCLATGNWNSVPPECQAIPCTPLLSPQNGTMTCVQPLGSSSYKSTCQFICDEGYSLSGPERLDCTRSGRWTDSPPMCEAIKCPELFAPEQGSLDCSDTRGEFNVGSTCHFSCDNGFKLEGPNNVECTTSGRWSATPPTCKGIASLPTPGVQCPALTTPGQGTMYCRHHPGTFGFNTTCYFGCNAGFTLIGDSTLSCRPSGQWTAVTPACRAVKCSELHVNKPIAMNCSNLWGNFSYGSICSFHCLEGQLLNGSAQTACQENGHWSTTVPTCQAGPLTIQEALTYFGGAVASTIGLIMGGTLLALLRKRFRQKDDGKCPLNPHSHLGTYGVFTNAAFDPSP
Outline: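 Isolated human neutrophils (2×10^5 per well) in HBSS with Ca2+/Mg2+ and HSA added to wells coated overnight at 4° C with platelet-derived P-selectin (5 micrograms/mL), HSA-blocked; 20 min at 22° C. Nonadherent cells removed by inverted centrifugation at 150 g; adherent cells quantified by myeloperoxidase activity.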

For `CC(C)[C@@H](NC(=O)[C@@H](Cc1c[nH]c2ccccc12)NC(=O)[C@H](NC(=O)[C@@H](Cc1c[nH]c2ccccc12)NC(=O)[C@H]1CSSC[C@@H](NC(=O)[C@@H](CCCCN)NC(=O)[C@H](N)CCCNC(=N)N)C(=O)N[C@@H](Cc2ccccc2)C(=O)NCC(=O)N1)[C@H](C)O)C(N)=O` [(18)] (H-[dR][dK][dC]FG[dC][dW][dT][dW][dV]-NH2; disulfide 3-6), the ring closure, yield of all isomers ([1]; from CC(C)[C@@H](NC(=O)[C@@H](Cc1c[nH]c2ccccc12)NC(=O)[C@H](NC(=O)[C@@H](Cc1c[nH]c2ccccc12)NC(=O)[C@@H](CS)NC(=O)CNC(=O)[C@H](Cc1ccccc1)NC(=O)[C@@H](CS)NC(=O)[C@@H](CCCCN)NC(=O)[C@H](N)CCCNC(=N)N)[C@H](C)O)C(N)=O, DMSO, 0.253 mM) was 13.7%, the ring closure, yield of all isomers ([1]; from CC(C)[C@@H](NC(=O)[C@@H](Cc1c[nH]c2ccccc12)NC(=O)[C@H](NC(=O)[C@@H](Cc1c[nH]c2ccccc12)NC(=O)[C@@H](CS)NC(=O)CNC(=O)[C@H](Cc1ccccc1)NC(=O)[C@@H](CS)NC(=O)[C@@H](CCCCN)NC(=O)[C@H](N)CCCNC(=N)N)[C@H](C)O)C(N)=O, DMSO, 0.253 mM, 16.0 h) was 13.7% and the IC50 (P-selectin) was 49 µM.

In the case of `CC(C)[C@@H](NC(=O)[C@@H](Cc1c[nH]c2ccccc12)NC(=O)[C@H](NC(=O)[C@@H](Cc1c[nH]c2ccccc12)NC(=O)[C@H]1CSSC[C@@H](NC(=O)[C@@H](CCCCN)NC(=O)[C@H](N)CCCNC(=N)N)C(=O)NCCCCC(=O)N1)[C@H](C)O)C(N)=O` [(21)] (H-[dR][dK][dC][Ava][dC][dW][dT][dW][dV]-NH2; disulfide 3-5), the ring closure, yield of all isomers ([1]; from CC(C)[C@@H](NC(=O)[C@@H](Cc1c[nH]c2ccccc12)NC(=O)[C@H](NC(=O)[C@@H](Cc1c[nH]c2ccccc12)NC(=O)[C@@H](CS)NC(=O)CCCCNC(=O)[C@@H](CS)NC(=O)[C@@H](CCCCN)NC(=O)[C@H](N)CCCNC(=N)N)[C@H](C)O)C(N)=O, DMSO, 0.241 mM, 16.0 h) is reported as 13.2% and the IC50 (P-selectin) is reported as 23 µM.

With `CC(C)[C@@H](NC(=O)[C@@H](Cc1c[nH]c2ccccc12)NC(=O)[C@H](NC(=O)[C@@H](Cc1c[nH]c2ccccc12)NC(=O)[C@H]1CSSC[C@@H](NC(=O)[C@@H](CCCCN)NC(=O)[C@H](N)CCCNC(=N)N)C(=O)NCC(=O)NCC(=O)N1)[C@H](C)O)C(N)=O` [(25)] (H-[dR][dK][dC]GG[dC][dW][dT][dW][dV]-NH2; disulfide 3-6) the ring closure, yield of all isomers ([1]; from CC(C)[C@@H](NC(=O)[C@@H](Cc1cn(C=O)c2ccccc12)NC(=O)[C@H](NC(=O)[C@@H](Cc1cn(C=O)c2ccccc12)NC(=O)[C@@H](CS)NC(=O)CNC(=O)CNC(=O)[C@@H](CS)NC(=O)[C@@H](CCCCN)NC(=O)[C@H](N)CCCNC(=N)N)[C@H](C)O)C(N)=O, DMSO, 1.4 mM, 16.0 h, 2 steps) was 2.4% and the IC50 (P-selectin) was 17 µM.

With `CC(C)[C@H](NC(=O)[C@H](Cc1c[nH]c2ccccc12)NC(=O)[C@@H](NC(=O)[C@H](Cc1c[nH]c2ccccc12)NC(=O)[C@@H]1CSSC[C@H](NC(=O)[C@@H](N)CCCCN)C(=O)NCC(=O)NCC(=O)N1)[C@@H](C)O)C(N)=O` [(27)] (H-KCGGCWTWV-NH2; disulfide 2-5) the ring closure, yield of all isomers ([1]; from CC(C)[C@H](NC(=O)[C@H](Cc1c[nH]c2ccccc12)NC(=O)[C@@H](NC(=O)[C@H](Cc1c[nH]c2ccccc12)NC(=O)[C@H](CS)NC(=O)CNC(=O)CNC(=O)[C@H](CS)NC(=O)[C@@H](N)CCCCN)[C@@H](C)O)C(N)=O, K3Fe(CN)6/NH4OH (half) and DMSO (half), 0.37 mM, 16.0 h) was 10.9% and the IC50 (P-selectin) was 22 µM.

Work on `CC(C)[C@H](NC(=O)[C@H](Cc1c[nH]c2ccccc12)NC(=O)[C@@H](NC(=O)[C@H](Cc1c[nH]c2ccccc12)NC(=O)[C@@H]1CSSC[C@H](N)C(=O)NCC(=O)NCC(=O)N1)[C@@H](C)O)C(N)=O` [(29)] (H-CGGCWTWV-NH2; disulfide 1-4) yielded a ring closure, yield of all isomers ([1]; from CC(C)[C@H](NC(=O)[C@H](Cc1c[nH]c2ccccc12)NC(=O)[C@@H](NC(=O)[C@H](Cc1c[nH]c2ccccc12)NC(=O)[C@H](CS)NC(=O)CNC(=O)CNC(=O)[C@@H](N)CS)[C@@H](C)O)C(N)=O, DMSO, 0.285 mM, 16.0 h) of 8.5% and an IC50 (P-selectin) of 325 µM.

Molecule `CC[C@H](C)[C@H](NC(=O)[C@H](CCCCN)NC(=O)[C@@H](N)CCCNC(=N)N)C(=O)NCC(=O)NCC(=O)N[C@H]1CSSC[C@@H](C(N)=O)NC(=O)[C@H](Cc2c[nH]c3ccccc23)NC(=O)[C@H]([C@@H](C)O)NC(=O)[C@H](Cc2c[nH]c3ccccc23)NC1=O` [(33)] (H-RKIGGCWTWC-NH2; disulfide 6-10) has a ring closure, yield of all isomers ([1]; from CC[C@H](C)[C@H](NC(=O)[C@H](CCCCN)NC(=O)[C@@H](N)CCCNC(=N)N)C(=O)NCC(=O)NCC(=O)N[C@@H](CS)C(=O)N[C@@H](Cc1c[nH]c2ccccc12)C(=O)N[C@H](C(=O)N[C@@H](Cc1c[nH]c2ccccc12)C(=O)N[C@@H](CS)C(N)=O)[C@@H](C)O, DMSO, 0.7 mM, 25.0 °C, 16.0 h) of 5.3% and an IC50 (P-selectin) of 468 µM.

With `CC(C)[C@@H](NC(=O)[C@@H](Cc1c[nH]c2ccccc12)NC(=O)[C@H](NC(=O)[C@@H](Cc1c[nH]c2ccccc12)NC(=O)[C@H]1CSSC[C@@H](NC(=O)[C@@H](CCCCN)NC(=O)[C@H](N)CCCNC(=N)N)C(=O)N[C@@H](C)C(=O)N[C@@H](Cc2ccccc2)C(=O)N1)[C@H](C)O)C(N)=O` [(37)] (H-[dR][dK][dC]AF[dC][dW][dT][dW][dV]-NH2; disulfide 3-6) the ring closure, yield of all isomers ([1]; from CC(C)[C@@H](NC(=O)[C@@H](Cc1c[nH]c2ccccc12)NC(=O)[C@H](NC(=O)[C@@H](Cc1c[nH]c2ccccc12)NC(=O)[C@@H](CS)NC(=O)[C@H](Cc1ccccc1)NC(=O)[C@H](C)NC(=O)[C@@H](CS)NC(=O)[C@@H](CCCCN)NC(=O)[C@H](N)CCCNC(=N)N)[C@H](C)O)C(N)=O, air/Cu wire, ammonium acetate, 0.731 mM, 22.0 h) was 1.3% and the IC50 (P-selectin) was 205 µM.

`CC(C)[C@@H](NC(=O)[C@@H](Cc1c[nH]c2ccccc12)NC(=O)[C@H](NC(=O)[C@@H](Cc1c[nH]c2ccccc12)NC(=O)[C@H]1CSSC[C@@H](NC(=O)[C@@H](CCCCN)NC(=O)[C@H](N)CCCNC(=N)N)C(=O)NCC(=O)N[C@@H](C)C(=O)N1)[C@H](C)O)C(N)=O` [(38)] (H-[dR][dK][dC]GA[dC][dW][dT][dW][dV]-NH2; disulfide 3-6) showed a ring closure, yield of all isomers ([1]; from CC(C)[C@@H](NC(=O)[C@@H](Cc1c[nH]c2ccccc12)NC(=O)[C@H](NC(=O)[C@@H](Cc1c[nH]c2ccccc12)NC(=O)[C@@H](CS)NC(=O)[C@H](C)NC(=O)CNC(=O)[C@@H](CS)NC(=O)[C@@H](CCCCN)NC(=O)[C@H](N)CCCNC(=N)N)[C@H](C)O)C(N)=O, air/Cu wire, NH4OH, 3.31 mM, 20.0 h) of 15.1% and an IC50 (P-selectin) of 75 µM.

Molecule `CC(C)[C@@H](NC(=O)[C@@H](Cc1c[nH]c2ccccc12)NC(=O)[C@H](NC(=O)[C@@H](Cc1c[nH]c2ccccc12)NC(=O)[C@H]1CSSC[C@@H](NC(=O)[C@@H](CCCCN)NC(=O)[C@H](N)CCCNC(=N)N)C(=O)N[C@@H](CCCNC(=N)N)C(=O)N[C@@H](Cc2ccccc2)C(=O)N1)[C@H](C)O)C(N)=O` [(39)] (H-[dR][dK][dC]RF[dC][dW][dT][dW][dV]-NH2; disulfide 3-6) has a ring closure, yield of all isomers ([1]; from CC(C)[C@@H](NC(=O)[C@@H](Cc1c[nH]c2ccccc12)NC(=O)[C@H](NC(=O)[C@@H](Cc1c[nH]c2ccccc12)NC(=O)[C@@H](CS)NC(=O)[C@H](Cc1ccccc1)NC(=O)[C@H](CCCNC(=N)N)NC(=O)[C@@H](CS)NC(=O)[C@@H](CCCCN)NC(=O)[C@H](N)CCCNC(=N)N)[C@H](C)O)C(N)=O, DMSO, 0.315 mM, 25.0 °C, 96.0 h) of 12.2% and an IC50 (P-selectin) of 30.6 µM.

For `CC(C)[C@@H](NC(=O)[C@@H](Cc1c[nH]c2ccccc12)NC(=O)[C@H](NC(=O)[C@@H](Cc1c[nH]c2ccccc12)NC(=O)[C@H]1CSSC[C@@H](NC(=O)[C@@H](CCCCN)NC(=O)[C@H](N)CCCNC(=N)N)C(=O)NCC(=O)N[C@@H](CC(N)=O)C(=O)N1)[C@H](C)O)C(N)=O` [(41)] (H-[dR][dK][dC]GN[dC][dW][dT][dW][dV]-NH2; disulfide 3-6), the ring closure, yield of all isomers ([1]; from CC(C)[C@@H](NC(=O)[C@@H](Cc1c[nH]c2ccccc12)NC(=O)[C@H](NC(=O)[C@@H](Cc1c[nH]c2ccccc12)NC(=O)[C@@H](CS)NC(=O)[C@H](CC(N)=O)NC(=O)CNC(=O)[C@@H](CS)NC(=O)[C@@H](CCCCN)NC(=O)[C@H](N)CCCNC(=N)N)[C@H](C)O)C(N)=O, Cu wire, dilute NH4OH (printed NH2OH), pH 8, 3.2 mM, 20.0 h) was 6% and the IC50 (P-selectin) was 26.2 µM.
